Laboratory results published in US20210254056A1, “IDENTIFICATION AND TARGETED MODULATION OF GENE SIGNALING NETWORKS” (CAMP4 THERAPEUTICS CORPORATION, priority 2017, published 2021).

Test system: hepatocytes
Assay: RNA-seq of hepatocytes treated with Phase III failure compounds
Conditions: for significant modulation of expression of disease genes: q≤0.05, genes in the value or listed in the block
Experimental: RNA-seq was performed to determine the effects of the compounds on hepatocytes.
Significance was determined by the criteria of FPKM≥0.5, a log 2(fold-change)≥1, and a […].

Cn1cc(C2=C(c3cn(C4CCN(Cc5ccccn5)CC4)c4ccccc34)C(=O)NC2=O)c2ccccc21 [Enzastaurin]
RNA-seq results, CYP2B6 expression: 0.42
RNA-seq results, CYP2C19 expression: 0.47
RNA-seq results, CYP2D6 expression: −0.28
RNA-seq results, CYP3A4 expression: 0.22
RNA-seq results, CYP7B1 expression: 0.06
RNA-seq results, CYP39A1 expression: −1.39
RNA-seq results: CYP2B6 expression: 0.34
RNA-seq results: CYP2C19 expression: 1.62
RNA-seq results: CYP2D6 expression: −0.62
RNA-seq results: CYP3A4 expression: 0.01
RNA-seq results: CYP7B1 expression: 0.26
RNA-seq results: CYP39A1 expression: −0.08
significant modulation of expression of disease genes (RNA-seq, hepatocytes): significantly (q≤0.05) modulate expression
effect on disease gene expression (RNA-seq, hepatocytes): effect on expression of too many disease genes
RNA-seq results: A1BG expression (gene A1BG, hepatocytes): 0.13
RNA-seq results: AGTR1 expression (gene AGTR1, hepatocytes): −0.76
RNA-seq results: AGXT expression (gene AGXT, hepatocytes): −0.27
RNA-seq results: AHI1 expression (gene AHI1, hepatocytes): 0.25
RNA-seq results: AMPD3 expression (gene AMPD3, hepatocytes): −0.35
RNA-seq results: AMT expression (gene AMT, hepatocytes): −0.42
RNA-seq results: ANGPTL3 expression (gene ANGPTL3, hepatocytes): −2.31
RNA-seq results: ANKS4B expression (gene ANKS4B, hepatocytes): −0.71
RNA-seq results: ANKS6 expression (gene ANKS6, hepatocytes): 0.10
RNA-seq results: ANPEP expression (gene ANPEP, hepatocytes): −0.52
RNA-seq results: AOC2 expression (gene AOC2, hepatocytes): 0.11
RNA-seq results: APOA2 expression (gene APOA2, hepatocytes): −0.48
RNA-seq results: APOA5 expression (gene APOA5, hepatocytes): −0.04
RNA-seq results: APOB expression (gene APOB, hepatocytes): −0.19
RNA-seq results: COG5 expression (gene COG5, hepatocytes): 0.35
RNA-seq results: COG6 expression (gene COG6, hepatocytes): 0.23
RNA-seq results: COL1A1 expression (gene COL1A1, hepatocytes): 0.34
RNA-seq results: COX6A1 expression (gene COX6A1, hepatocytes): −1.30
RNA-seq results: CP expression (gene CP, hepatocytes): 0.80
RNA-seq results: CPS1 expression (gene CPS1, hepatocytes): 0.69
RNA-seq results: CPT1A expression (gene CPT1A, hepatocytes): −0.10
RNA-seq results: CPT2 expression (gene CPT2, hepatocytes): −0.15
RNA-seq results: CROT expression (gene CROT, hepatocytes): −0.21
RNA-seq results: CSPP1 expression (gene CSPP1, hepatocytes): −0.22
RNA-seq results: CTC1 expression (gene CTC1, hepatocytes): 0.46
RNA-seq results: CTDSP2 expression (gene CTDSP2, hepatocytes): 0.44
RNA-seq results: CTH expression (gene CTH, hepatocytes): −0.17
RNA-seq results: CTNS expression (gene CTNS, hepatocytes): 0.16
RNA-seq results: CTSF expression (gene CTSF, hepatocytes): −0.63
RNA-seq results: CTSK expression (gene CTSK, hepatocytes): 0.47
RNA-seq results: CYB5A expression (gene CYB5A, hepatocytes): −0.56
RNA-seq results: CYB5R3 expression (gene CYB5R3, hepatocytes): 0.02
RNA-seq results: CYP27A1 expression (gene CYP27A1, hepatocytes): −0.43
RNA-seq results: DAO expression (gene DAO, hepatocytes): −0.01
RNA-seq results: DBT expression (gene DBT, hepatocytes): 0.28
RNA-seq results: DCDC2 expression (gene DCDC2, hepatocytes): 0.20
RNA-seq results: DCXR expression (gene DCXR, hepatocytes): −1.16
RNA-seq results: FABP1 expression (gene FABP1, hepatocytes): −0.93
RNA-seq results: FADD expression (gene FADD, hepatocytes): −0.53
RNA-seq results: FAM111A expression (gene FAM111A, hepatocytes): 0.49
RNA-seq results: FAM111B expression (gene FAM111B, hepatocytes): 0.47
RNA-seq results: FAN1 expression (gene FAN1, hepatocytes): 0.43
RNA-seq results: FARS2 expression (gene FARS2, hepatocytes): −0.55
RNA-seq results: FASLG expression (gene FASLG, hepatocytes): 0.35
RNA-seq results: FGA expression (gene FGA, hepatocytes): −0.10
RNA-seq results: FGD1 expression (gene FGD1, hepatocytes): 0.29
RNA-seq results: FGFR2 expression (gene FGFR2, hepatocytes): 0.75
RNA-seq results: FIG4 expression (gene FIG4, hepatocytes): 0.08
RNA-seq results: FIS1 expression (gene FIS1, hepatocytes): −1.07
RNA-seq results: FTCD expression (gene FTCD, hepatocytes): −0.35
RNA-seq results: FTH1 expression (gene FTH1, hepatocytes): −0.84
RNA-seq results: FUCA1 expression (gene FUCA1, hepatocytes): −0.37
RNA-seq results: FXN expression (gene FXN, hepatocytes): −0.10
RNA-seq results: G6PC3 expression (gene G6PC3, hepatocytes): −0.60
RNA-seq results: G6PC expression (gene G6PC, hepatocytes): 0.69
RNA-seq results: G6PD expression (gene G6PD, hepatocytes): −0.23
RNA-seq results: GALK1 expression (gene GALK1, hepatocytes): −0.94
RNA-seq results: GALK2 expression (gene GALK2, hepatocytes): −0.51
RNA-seq results: GATA6 expression (gene GATA6, hepatocytes): −0.26
RNA-seq results: GATM expression (gene GATM, hepatocytes): 0.12
RNA-seq results: GBA expression (gene GBA, hepatocytes): 0.04
RNA-seq results: GBE1 expression (gene GBE1, hepatocytes): −0.07
RNA-seq results: GCH1 expression (gene GCH1, hepatocytes): −0.12
RNA-seq results: GCKR expression (gene GCKR, hepatocytes): 0.17
RNA-seq results: GCLC expression (gene GCLC, hepatocytes): 0.11
RNA-seq results: GGCX expression (gene GGCX, hepatocytes): 0.17
RNA-seq results: GHR expression (gene GHR, hepatocytes): 0.73
RNA-seq results: GJB2 expression (gene GJB2, hepatocytes): −0.07
RNA-seq results: GOSH expression (gene GOSH, hepatocytes): −1.35
RNA-seq results: RRM2B (gene RRM2B, hepatocytes): −0.08
RNA-seq results: RSAD1 (gene RSAD1, hepatocytes): 0.26
RNA-seq results: SAMHD1 (gene SAMHD1, hepatocytes): −0.34
RNA-seq results: SC5D (gene SC5D, hepatocytes): 0.23
RNA-seq results: SCARB1 (gene SCARB1, hepatocytes): −0.02
RNA-seq results: SCN9A (gene SCN9A, hepatocytes): −1.60
RNA-seq results: SDCCAG8 (gene SDCCAG8, hepatocytes): 0.08
RNA-seq results: SEPN1 (gene SEPN1, hepatocytes): −0.51
RNA-seq results: SERAC1 (gene SERAC1, hepatocytes): −0.28
RNA-seq results: SERPINA1 (gene SERPINA1, hepatocytes): 0.21
RNA-seq results: SERPING1 (gene SERPING1, hepatocytes): 0.06
RNA-seq results: SERPINI1 (gene SERPINI1, hepatocytes): −0.50
RNA-seq results: SETBP1 (gene SETBP1, hepatocytes): 0.08
RNA-seq results: SFXN4 (gene SFXN4, hepatocytes): 0.11
RNA-seq results: SLC10A1 (gene SLC10A1, hepatocytes): −0.60
RNA-seq results: SLC10A3 (gene SLC10A3, hepatocytes): 0.28
RNA-seq results: SLC10A5 (gene SLC10A5, hepatocytes): −0.77
RNA-seq results: SLC10A7 (gene SLC10A7, hepatocytes): −0.46
RNA-seq results: SLC11A2 (gene SLC11A2, hepatocytes): 0.16
RNA-seq results: SLC19A2 (gene SLC19A2, hepatocytes): 0.28
RNA-seq results: SLC19A3 (gene SLC19A3, hepatocytes): −0.67
RNA-seq results: SLC22A1 (gene SLC22A1, hepatocytes): −0.34
RNA-seq results: SLC22A5 (gene SLC22A5, hepatocytes): 0.26
RNA-seq results: SLC25A1 (gene SLC25A1, hepatocytes): −0.20
RNA-seq results: SLC25A10 (gene SLC25A10, hepatocytes): −0.01
RNA-seq results: SLC25A12 (gene SLC25A12, hepatocytes): 0.10
RNA-seq results: SLC25A13 (gene SLC25A13, hepatocytes): 0.11
RNA-seq results: SLC25A15 (gene SLC25A15, hepatocytes): −0.31
RNA-seq results: SLC25A19 (gene SLC25A19, hepatocytes): −0.01
RNA-seq results: SLC25A20 (gene SLC25A20, hepatocytes): −0.96
RNA-seq results: SLC25A32 (gene SLC25A32, hepatocytes): 0.18

CC(C)[C@H](O)C(=O)N[C@@H](C)C(=O)N[C@@H]1C(=O)N(C)CCc2ccccc21 [Semagacestat]
Number (#) of genes having significantly changed expression (RNA-seq, Phase III failure compounds, hepatocytes, significance: FPKM≥0.5, log 2(fold-change)≥1, q-value≥0.05 (so in the source)): 9
significant modulation of expression of disease genes (RNA-seq, hepatocytes): significantly (q≤0.05) modulate expression of CYP3A4
B2M expression, RNA-seq result (gene B2M, hepatocytes): −0.06
B9D2 expression, RNA-seq result (gene B9D2, hepatocytes): 0.10
BAAT expression, RNA-seq result (gene BAAT, hepatocytes): 0.02
BBOX1 expression, RNA-seq result (gene BBOX1, hepatocytes): −0.39
BBS10 expression, RNA-seq result (gene BBS10, hepatocytes): −0.12
BCHE expression, RNA-seq result (gene BCHE, hepatocytes): −0.07
BCKDHB expression, RNA-seq result (gene BCKDHB, hepatocytes): 0.07
BCKDK expression, RNA-seq result (gene BCKDK, hepatocytes): 0.00
BCO1 expression, RNA-seq result (gene BCO1, hepatocytes): −0.09
BCR expression, RNA-seq result (gene BCR, hepatocytes): −0.04
BLNK expression, RNA-seq result (gene BLNK, hepatocytes): −0.03
BLOC1S3 expression, RNA-seq result (gene BLOC1S3, hepatocytes): −0.02
BMPR1A expression, RNA-seq result (gene BMPR1A, hepatocytes): 0.01
BRAF expression, RNA-seq result (gene BRAF, hepatocytes): 0.30
BSCL2 expression, RNA-seq result (gene BSCL2, hepatocytes): 0.05
BTD expression, RNA-seq result (gene BTD, hepatocytes): −0.02
C4A expression, RNA-seq result (gene C4A, hepatocytes): 0.16
C9 expression, RNA-seq result (gene C9, hepatocytes): −0.11
C10orf10 expression, RNA-seq result (gene C10orf10, hepatocytes): 0.01
C10orf11 expression, RNA-seq result (gene C10orf11, hepatocytes): −0.27
C15orf41 expression, RNA-seq result (gene C15orf41, hepatocytes): −0.28
CA2 expression, RNA-seq result (gene CA2, hepatocytes): 0.59
CA5A expression, RNA-seq result (gene CA5A, hepatocytes): −0.22
CA12 expression, RNA-seq result (gene CA12, hepatocytes): 0.80
CAV1 expression, RNA-seq result (gene CAV1, hepatocytes): −0.21
CCND1 expression, RNA-seq result (gene CCND1, hepatocytes): −0.14
CD46 expression, RNA-seq result (gene CD46, hepatocytes): −0.05
CD81 expression, RNA-seq result (gene CD81, hepatocytes): −0.02
CD320 expression, RNA-seq result (gene CD320, hepatocytes): −0.04
CDAN1 expression, RNA-seq result (gene CDAN1, hepatocytes): −0.07
CDH1 expression, RNA-seq result (gene CDH1, hepatocytes): 0.01
CEP19 expression, RNA-seq result (gene CEP19, hepatocytes): −0.22
CEP83 expression, RNA-seq result (gene CEP83, hepatocytes): −0.04
CEP164 expression, RNA-seq result (gene CEP164, hepatocytes): −0.01
CEP290 expression, RNA-seq result (gene CEP290, hepatocytes): 0.06
CFB expression, RNA-seq result (gene CFB, hepatocytes): −0.07
CFHR2 expression, RNA-seq result (gene CFHR2, hepatocytes): 0.01
CHRM3 expression, RNA-seq result (gene CHRM3, hepatocytes): 0.08
CIDEC expression, RNA-seq result (gene CIDEC, hepatocytes): 0.28
CLDN1 expression, RNA-seq result (gene CLDN1, hepatocytes): −0.05
COG1 expression, RNA-seq result (gene COG1, hepatocytes): 0.17
